In US20140287495A1, “Methods of Inducing Differentiation of Stem Cells” (ES Cell International Pte LTD, priority 2001, published 2014):

Legend:
[1] = tested on: Brachyury T; test: Northern blot of Brachyury T expression in P19EC aggregates; assay type: cell-based, mouse; conditions: FIG. 10B
Protocol: (§1) END-2 cells and hES cells were cultured as described in Example 1. The hES2 cell line from ES Cell International Pte Ltd was used in all experiments. […] Co-cultures were then grown for up to 6 weeks and scored for the presence of areas of beating muscle from 5 days onwards. HepG2 cells, a carcinoma cell line resembling liver parenchymal cells (Knowles et al, (1980) Science 209:497-9), were cultured in DMEM plus 10% FCS and passaged twice weekly. […] Hanging-drop cultures of P19 EC cells were initiated and maintained in DMEM/Ham's F12 (1:1), as described previously (Mummery et al, 1991), using regular FCS while bulk production of P19 embryoid bodies in the presence or absence of END-2 conditioned medium for isolation of RNA for Northern blotting, was in the presence of charcoal-stripped FCS, as described (Mummery et al, 1991) to reduce background levels of cardiomyocyte differentiation caused by lipophilic substances possibly with retinoid-like activity in FCS. P19 clone 6 were cultured in aMEM and treated aMEM conditioned by END-2 cells. For electrophysiology, beating aggregates were dissociated using collagenase and replated on gelatine-coated coverslips.
RNA was isolated from P19 aggregates and poly A+RNA selected, as described previously (Mummery et al, 1990, Dev. Biol. 142: 406-413).
Background differentiation levels are reduced virtually to zero if the FCS is passed over an activated charcoal column (DCC-FCS) to remove residual retinoids; in addition, differentiation is blocked by activin (van den Eijnden-van Raaij et al, 1991, Mech. Dev. 33:157-166). […] The P19EC assay system was preferred because these cells are feeder independent for undifferentiated growth. […] Moreover, the induction of Brachyury T is blocked by the additional presence of activin (FIG. 10B), consistent with its ability to block the formation of beating muscle in aggregates. The transient expression of Brachyury T is similar to that observed during early mesoderm differentiation during gastrulation of the mouse embryo.

[2] = tested on: P19 EC cells; test: Induction of beating muscle in replated P19 EC aggregates (hanging-drop assay); assay type: cell-based, mouse; conditions: P19EC aggregates, day 10
Protocol: as §1, with “coverslips. […]” for “coverslips.”

[3] = tested on: hES-derived cardiomycytes; test: Beating of hES-derived cardiomyocytes in response to pharmacological agonists; assay type: cell-based, human; conditions: hES2/END-2 co-culture derived cardiomyocytes; basal beating 45-60 times per minute
Protocol: as §1
The majority of the experiments described here were carried out using the hES2 cell line (Reubinoff et al, 2000). […] Oct-4 expression thus correlated with phenotypic characteristics of undifferentiated cells. hES cells were subcultured by transferring small clumps of undifferentiated cells either to new, mit.C-treated MEFs or confluent cultures of mit.C-treated END-2 cells. After approximately 5d under these conditions, epithelial cells became evident which over the next few days become fluid-filled cysts (FIG. 1A). […] In addition, by 10 d areas of rhythmically contracting cells in more solid aggregates become evident (FIG. 1A,3e) with a variety of overall morphologies (FIG. 1B,3e). […]

[4] = tested on: P19 EC cells; conditions: END-2 conditioned medium induced differentiation; cited from earlier work

Compound: C[S+](C)[O-] [DMSO, dimethyl sulphoxide]
- Brachyury T (early mesoderm marker) expression ([1]; aggregation phase, first 3 days, Northern blot): induced
- aggregates beating [2]: All aggregates beat

Compound: C[N+](C)(C)CCOC(N)=O [carbachol]
- beating of hES-derived cardiomyocytes in response to agonist [3]: upregulated

Compound: CC(C)NCC(O)c1ccc(O)c(O)c1 (centres unmarked) [isoprenaline]
- beating of hES-derived cardiomyocytes in response to agonist [3]: upregulated

Compound: CNC[C@H](O)c1cccc(O)c1 [phenylephrine]
- beating of hES-derived cardiomyocytes in response to agonist [3]: upregulated

Compound: activin: factor that blocks Brachyury T induction and the formation of beating muscle in aggregates
- cardiomyocyte differentiation of P19 EC aggregates in presence of activin [4]: blocked
- DMSO induced Brachyury T expression in presence of activin ([1]; P19EC aggregates): blocked
- END-2 CM induced Brachyury T expression in additional presence of activin ([1]; P19EC aggregates): blocked
